Results reported in BigSolDB 2.1.

CCOc1ncc(C)c2c1[C@H](c1ccc(C#N)cc1OC)C(C(N)=O)=C(C)N2
solubility (mole fraction)
Conditions | in 2-butanone | in acetone | in acetonitrile | in dichloromethane | in ethanol | in ethyl acetate | in isopropanol | in isopropyl acetate | in methanol | in methyl acetate
273.15 K | 0.0031 | 0.00376 | 0.000808 | 0.0047 | 0.000949 | 0.00114 | 0.000229 | 0.000378 | 0.004 | 0.00127
278.15 K | 0.00347 | 0.00407 | 0.000973 | 0.00506 | 0.00115 | 0.00128 | 0.000333 | 0.000459 | 0.00422 | 0.00136
283.15 K | 0.00376 | 0.00449 | 0.00111 | 0.00565 | 0.00135 | 0.00143 | 0.000443 | 0.000563 | 0.0045 | 0.0015
288.15 K | 0.0041 | 0.00508 | 0.00129 | 0.00622 | 0.00156 | 0.00157 | 0.000554 | 0.000647 | 0.00484 | 0.00166
293.15 K | 0.0044 | 0.00545 | 0.00144 | 0.00669 | 0.00182 | 0.0017 | 0.000682 | 0.000728 | 0.00515 | 0.00182
298.15 K | 0.00468 | 0.00577 | 0.00166 | 0.00724 | 0.00206 | 0.00182 | 0.000822 | 0.000809 | 0.00553 | 0.00197
303.15 K | 0.00508 | 0.00614 | 0.0019 | 0.00766 | 0.00233 | 0.00195 | 0.000984 | 0.00089 | 0.00599 | 0.00211
308.15 K | 0.00542 | 0.00665 | 0.00217 | 0.00814 | 0.00261 | 0.00211 | 0.00122 | 0.000979 | 0.00638 | 0.00229
313.15 K | 0.00587 | 0.00725 | 0.00247 | – | 0.00299 | 0.00225 | 0.00152 | 0.00113 | 0.00684 | 0.00248
